What all share (assay): NCI-60 cell line screen, 48 h
Test [1] deals with HCT-116 colon.
Test [2] has as its system HOP-92 NSCLC.
Test [3] concerns IGROV1 ovarian.
Test [4] deals with K-562 leukemia.
For test [5], the system named is NCI-H460 lung.
Test [6] deals with OVCAR-3 ovarian.
The test system of test [7] is OVCAR-4 ovarian.
Test [8] concerns RXF 393 renal.
For test [9], the system named is SK-MEL-5 melanoma.
Test [10] deals with SNB-75 CNS.

“And” between values parts separate entries of the source, which are not always exact repeats. Equal entries are not always repeated.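 Method: 48-hour compound exposure of cells in 96-well plates, five concentrations, linear interpolation of endpoints. At the GI50, growth is halved. The concentration for full growth arrest is given as TGI.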

Turning to `Cn1ncc(-c2ccc3c(=O)[nH]nc(CN)c3c2)c1-c1c(F)c(Cl)cc(OC2CC2)c1C#N`, the GI50 was 13.1 µM and 12.8 µM in test [1]; 12.9 µM and 10.1 µM in test [2]; 14.2 µM and 11.6 µM in test [3]; 14.5 µM and 14.8 µM in [4]; 13.6 µM and 12.4 µM in test [5]; 15 µM and 12.6 µM in [6]. Besides, the GI50 in test [7] was 14.5 µM and 12.6 µM; in test [8], 6.22 µM and 2.24 µM; in test [9], 12 µM and 14.3 µM; in [10], 11.1 µM and 5.4 µM. Besides, the TGI was 29.1 µM and 27.5 µM in test [1]; 31.1 µM and 25.5 µM in [2]; 30.1 µM and 24.6 µM in [3]; 92.1 µM and > 100 µM in [4]; 28.8 µM and 26.7 µM in test [5]; 30.6 µM and 26.5 µM in test [6]. In addition, the TGI in [7] was 29.1 µM and 26.2 µM; in [8], 21.4 µM and 12.9 µM; in [9], 24.4 µM and 27.5 µM; in [10] it was 23.7 µM and 20.7 µM.

With `FC(F)(F)c1cccc(-c2nc3nc(Cl)c(Cl)nc3[nH]2)c1`, the TGI in test [1] was 12.1 µM; in test [2], 9.79 µM; in test [3] it was greater than 100 µM; in [4], 17 µM; in test [5] it was greater than 30.3 µM; in test [6], 14.9 µM. Further, the TGI is greater than 41.6 µM in [7], 27 µM in [8], 3.16 µM in test [9] and 7.06 µM in test [10].

In the case of `CCc1c2c(nc3ccc(OCc4ccc(B(O)O)cc4)cc13)-c1cc3c(c(=O)n1C2)COC(=O)[C@]3(O)CC`, the GI50 in [1] is 0.0118 µM; in test [2] it was 0.0366 µM; in test [3], 0.161 µM; in test [4], 0.0792 µM; in [5], less than 0.0134 µM; in [6], 0.172 µM. The GI50 in [7] was 0.399 µM; in test [8], 0.0232 µM; in [9], 0.0244 µM; in test [10] it was less than 0.0167 µM. Also, the TGI in test [1] was 17.8 µM; in test [2], 4.36 µM; in test [3] it was greater than 33.7 µM; in [4] it was greater than 100 µM; in [5], 1.39 µM; in test [6], 4.46 µM. In addition, the TGI stood at 29.7 µM in test [7], 0.142 µM in test [8], 0.173 µM in test [9] and 0.321 µM in [10].

For the compound `O=C1C[C@H]2CCCN2[C@@H](c2ccccc2)C1`, the TGI in [1], in test [2], in test [3], in test [4], in [5] and in test [6] was greater than 100 µM throughout. Also, the TGI in test [7], in test [8], in [9] and in test [10] was greater than 100 µM in each case.

Consider `CN(C)c1cc2ccccc2oc1=O`, for which the TGI in test [1], in test [2], in test [3], in [4], in test [5] and in [6] was greater than 100 µM throughout. Moreover, the TGI in test [7], in [8], in test [9] and in test [10] was greater than 100 µM each time.

In the case of `c1ccc(NN(Cc2cnccn2)c2ccccc2)cc1`, the TGI was greater than 100 µM in [1]; 89.7 µM in [2]; greater than 100 µM in test [3]; greater than 100 µM in [4]; greater than 100 µM in test [5]; greater than 100 µM in [6]. In addition, the TGI in [7], in [8], in test [9] and in test [10] was greater than 100 µM each time.

For `Nc1nc2ccc(-c3nc4ccc5[nH]ncc5c4c4c3CCC4)cc2s1`, the GI50 is 0.244 µM in [1]; 0.66 µM in test [2]; 0.288 µM in test [3]; 0.115 µM in test [4]; 0.208 µM in [5]; 0.187 µM in test [6]. In addition, the GI50 in test [7] was 0.835 µM; in test [8] it was 0.238 µM; in [9], 0.238 µM; in [10], 0.115 µM. In addition, the TGI in [1] came to 6.68 µM; in test [2], 6.87 µM; in [3], 8.66 µM; in test [4], 33.2 µM; in [5], 5.12 µM; in test [6] it was 10.8 µM. The TGI in test [7] is 6.25 µM; in [8], 1.77 µM; in test [9], 1.68 µM; in test [10], 0.55 µM.

For the compound `O=S(=O)(/N=c1\scc(-c2ccccc2)n1-c1ccccc1)c1ccc(N2N=C3c4ccccc4CC3C2c2ccc(Cl)cc2)cc1` (configuration not stated), the GI50 is 47.5 µM in [1]; 38.6 µM in test [2]; 25.7 µM in test [3]; 20 µM in test [4]; greater than 100 µM in test [5]; 44.3 µM in test [6]. Moreover, the GI50 is 63.8 µM in test [7], 42 µM in [8], 25.2 µM in test [9] and greater than 100 µM in test [10]. Besides, the TGI in [1] was greater than 100 µM; in [2], greater than 100 µM; in [3], 85.1 µM; in test [4] it was 55.5 µM; in [5], greater than 100 µM; in test [6], greater than 100 µM. The TGI in test [7] was greater than 100 µM; in test [8], greater than 100 µM; in test [9] it was 75 µM; in [10], greater than 100 µM.

Consider `Cc1ccc(S(=O)(=O)SC/C=C\CSS(=O)(=O)c2ccc(C)cc2)cc1`, for which the GI50 in test [1] is 5.31 µM and 19.9 µM; in test [7] it was 53.1 µM and 20.1 µM. For the same compound, the TGI in [1] was 29.7 µM and 41.4 µM; in test [2], > 72.7 µM and 37.9 µM; in test [3], > 100 µM and 79.2 µM; in test [4], 25.2 µM and 64.9 µM; in [5], > 94 µM and 99.4 µM; in [6] it was 78.8 µM and 56 µM. The TGI was > 100 µM and 41.2 µM in test [7]; 77.1 µM and 36.6 µM in test [8]; greater than 100 µM in test [9]; greater than 100 µM in test [10].

In the case of `CC(=O)Nc1ccc(-c2cc(C(=O)O)c3cc4ccccc4cc3n2)cc1`, the TGI in [1], in test [2], in test [3], in test [4], in test [5] and in [6] was greater than 100 µM in each case. Further, the TGI in [7], in test [8], in test [9] and in [10] was greater than 100 µM each time.

Source of the values: PubChem BioAssay (NCI).
